Measured values published in ChEMBL document CHEMBL3414475, “Design, synthesis, and structure-activity relationship of novel LSD1 inhibitors based on pyrimidine-thiourea hybrids as potent, orally active antitumor agents” (J Med Chem, 2015).
One block for each molecule: values may come before it. Active and inactive are the calls of the source. The rule behind the calls is not given here.

How the values were obtained:
[1] = target: Lysine-specific histone demethylase 1A (Homo sapiens, UniProt O60341)
Description: Inhibition of recombinant LSD1 (157 to 852) (unknown origin) transfected in Escherichia coli BL21(DE) by fluorescence assay

MGC-803 [2] = assay: Induction of apoptosis in human MGC803 cells assessed as crescent nuclei at 2 to 8 uM after 24 hrs by Hoechst 33258 staining-based fluorescence microscopy; assay type: functional, cell-based
MGC-803 [3] = assay: Induction of apoptosis in human MGC803 cells assessed as chromatin shrinkage at 2 to 8 uM after 24 hrs by Hoechst 33258 staining-based fluorescence microscopy; assay type: functional, cell-based
MGC-803 [4] = assay: Induction of apoptosis in human MGC803 cells assessed as formation of apoptotic bodies at 2 to 8 uM after 24 hrs by Hoechst 33258 staining-based fluorescence microscopy; assay type: functional, cell-based
MGC-803 [5] = assay: Induction of apoptosis in human MGC803 cells assessed as formation of apoptotic bodies after 48 hrs by annexinV-FITC/propidium iodide staining-based flow cytometry; assay type: functional, cell-based
[6] = Induction of apoptosis in human MGC803 cells assessed as upregulation of Bax expression after 48 hrs by Western blotting analysis; assay type: functional, cell-based; details: MGC-803
MGC-803 [7] = assay: Induction of apoptosis in human MGC803 cells assessed as down regulation of Bcl2 expression after 48 hrs by Western blotting analysis; assay type: functional, cell-based
Mus musculus [8] = assay: Toxicity in nude BALB/C mouse xenografted with human MGC803 cells assessed as weight loss at 50 to 100 mg/kg, po; assay type: organism-based, MGC-803; parameters: dose 50-100 mg/kg, route oral; details: in vivo
Mus musculus [9] = assay: Upregulation of Bax expression in nude BALB/C mouse xenografted with human MGC803 cells at 50 to 100 mg/kg, po administered for 21 days; assay type: functional, organism-based; details: MGC-803
Mus musculus [10] = assay: Downregulation of Bcl2 expression in nude BALB/C mouse xenografted with human MGC803 cells at 50 to 100 mg/kg, po administered for 21 days; assay type: functional, organism-based; details: MGC-803
MGC-803 [11] = assay: Antimigratory activity against human MGC803 cells at >5 uM after 48 hrs by transwell assay; assay type: functional, cell-based
MGC-803 [12] = assay: Antiinvasive activity against human MGC803 cells at >5 uM after 48 hrs by matrigel-coated transwell assay; assay type: functional, cell-based
[13] = Antimetastatic activity in mouse B16F10 cells […] in C57BL/6 mouse assessed as lung metastatic nodule at 50 mg/kg, po administered for 14 days (reference value: 26.6 +/- 8.7); assay type: functional, B16-F10
[14] = Antimetastatic activity in mouse B16F10 cells […] in C57BL/6 mouse assessed as lung metastatic nodule at 100 mg/kg, po administered for 14 days (reference value: 26.6 +/- 8.7); assay type: functional, B16-F10
MGC-803 [15] = assay: Antiinvasive activity against human MGC803 cells at 1.25 to 5 uM after 48 hrs by wound healing assay; assay type: functional, cell-based
[16] = target: T1, Amine oxidase [flavin-containing] A (Homo sapiens, UniProt P21397)
T1 sequence (P21397 whole entry): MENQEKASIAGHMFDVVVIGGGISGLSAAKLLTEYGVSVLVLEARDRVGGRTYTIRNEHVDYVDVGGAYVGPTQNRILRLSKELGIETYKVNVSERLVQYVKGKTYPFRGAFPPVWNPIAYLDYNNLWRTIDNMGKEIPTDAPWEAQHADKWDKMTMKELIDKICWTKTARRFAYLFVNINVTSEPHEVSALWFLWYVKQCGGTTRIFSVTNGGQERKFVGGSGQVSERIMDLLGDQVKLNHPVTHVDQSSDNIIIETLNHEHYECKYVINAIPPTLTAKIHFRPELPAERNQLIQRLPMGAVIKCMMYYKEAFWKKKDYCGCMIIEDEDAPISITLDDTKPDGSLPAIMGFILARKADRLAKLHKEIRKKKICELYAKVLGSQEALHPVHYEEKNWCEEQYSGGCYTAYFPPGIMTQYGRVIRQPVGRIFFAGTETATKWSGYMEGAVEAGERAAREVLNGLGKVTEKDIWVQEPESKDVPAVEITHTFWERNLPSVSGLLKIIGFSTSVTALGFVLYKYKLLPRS
Description: Inhibition of MAOA (unknown origin)

[17] = target: T2, Amine oxidase [flavin-containing] B (Homo sapiens, UniProt P27338)
T2 sequence (P27338 whole entry): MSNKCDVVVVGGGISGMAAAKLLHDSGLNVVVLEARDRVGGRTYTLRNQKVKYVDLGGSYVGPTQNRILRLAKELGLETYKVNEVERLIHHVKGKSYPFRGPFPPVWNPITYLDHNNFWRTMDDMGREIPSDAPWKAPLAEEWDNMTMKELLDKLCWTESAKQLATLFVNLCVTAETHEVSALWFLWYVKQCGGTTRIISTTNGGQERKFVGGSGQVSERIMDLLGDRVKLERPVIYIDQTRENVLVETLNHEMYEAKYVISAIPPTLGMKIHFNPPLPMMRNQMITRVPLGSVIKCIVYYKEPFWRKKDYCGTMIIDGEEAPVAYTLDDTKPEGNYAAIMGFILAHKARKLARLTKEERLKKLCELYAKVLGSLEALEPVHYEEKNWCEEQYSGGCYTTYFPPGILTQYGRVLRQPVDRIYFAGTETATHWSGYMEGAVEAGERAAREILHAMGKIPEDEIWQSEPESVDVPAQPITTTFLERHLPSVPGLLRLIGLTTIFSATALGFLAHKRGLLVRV
Description: Inhibition of MAOB (unknown origin)

MGC-803 [18] = details: Homo sapiens, 1.25 to 5 uM
Description: Inhibition of epithelial-mesenchymal transition in human MGC803 cells assessed as down regulation of N-Cadherin at 1.25 to 5 uM after 48 hrs by Western blotting analysis

MGC-803 [19] = assay: cells; details: Homo sapiens, MGC-803, 72 h
Description: Cytotoxicity against human MGC803 cells after 72 hrs by MTT assay

cells [20] = details: Homo sapiens, HGC-27, 72 h
Description: Cytotoxicity against human HGC27 cells after 72 hrs by MTT assay

cells [21] = details: Homo sapiens, SGC-7901, 72 h
Description: Cytotoxicity against human SGC7901 cells after 72 hrs by MTT assay

cells [22] = details: Homo sapiens, GES1, 72 h
Description: Cytotoxicity against human GES-1 cells after 72 hrs by MTT assay

MGC-803 [23] = assay: animal or person; details: Mus musculus, MGC-803, po, 504 h, read-out: TGI
Description: Antitumor activity against human MGC803 cells xenografted in nude BALB/C mouse assessed as reduction of tumor weight at 50 mg/kg, po administered for 21 days relative to vehicle-treated control

MGC-803 [24] = assay: animal or person; details: Mus musculus, MGC-803, po, 504 h, read-out: TGI; remark: listed apart in the source
Description: Antitumor activity against human MGC803 cells xenografted in nude BALB/C mouse assessed as reduction of tumor weight at 100 mg/kg, po administered for 21 days relative to vehicle-treated control

IC50 [1]: > 125 µM
SMILES: C#CCSc1nc(Nc2ccc(C)cc2)c(C#N)c(-c2ccccc2)n1

IC50 [16]: > 1250 µM
IC50 [17]: > 1250 µM
IC50 (MGC-803 [19]): 4.01 µM
IC50 (cells [20]): 8.92 µM
IC50 (cells [21]): 67.5 µM
IC50 (cells [22]): 58.9 µM
SMILES: C#CCSc1nc(NNC(N)=S)c(C#N)c(-c2cc(OC)c(OC)c(OC)c2)n1
Activity (MGC-803 [2]): Active
Activity (MGC-803 [3]): Active
Activity (MGC-803 [4]): Active
Activity (MGC-803 [5]): Dose-dependent effect
Activity [6]: Dose-dependent effect
Activity (MGC-803 [7]): Dose-dependent effect
Activity (Mus musculus [8]): Non-toxic
Activity (Mus musculus [9]): Active
Activity (Mus musculus [10]): Active
Activity (MGC-803 [11]): Active
Activity (MGC-803 [12]): Active
Activity [13]: 12.1
Activity [14]: 8.4
Activity (MGC-803 [15]): Active
inhibition (MGC-803 [18]): Active
inhibition in vivo at 50 mg/kg (MGC-803 [23]): 55.1%
inhibition in vivo at 100 mg/kg (MGC-803 [24]): 72.1%

IC50 [1]: > 125 µM
SMILES: C#CCSc1nc(Nc2ccc(Cl)cc2)c(C#N)c(-c2ccccc2)n1

IC50 [1]: > 125 µM
SMILES: C#CCSc1nc(Nc2ccc(OC)cc2)c(C#N)c(-c2ccccc2)n1

IC50 [1]: > 125 µM
SMILES: C#CCSc1nc(Nc2cccc(C(F)(F)F)c2)c(C#N)c(-c2cc(OC)c(OC)c(OC)c2)n1

IC50 [1]: > 125 µM
SMILES: COc1cc(-c2nc(SCc3ccc(F)cc3)nc(NNC(N)=S)c2C#N)cc(OC)c1OC

IC50 [1]: > 125 µM
SMILES: C#CCSc1nc(Nc2ccc(Cl)cc2)c(C#N)c(-c2ccc(Br)cc2)n1

IC50 [1]: > 125 µM
SMILES: C#CCSc1nc(Nc2ccc(OC)cc2)c(C#N)c(-c2cc(OC)c(OC)c(OC)c2)n1

IC50 [1]: > 125 µM
SMILES: C#CCSc1nc(Nc2ccc(OC)cc2)c(C#N)c(-c2ccc(Cl)cc2)n1

IC50 [1]: > 125 µM
SMILES: C#CCSc1nc(Nc2cccc(C(F)(F)F)c2)c(C#N)c(-c2ccccc2)n1

IC50 [1]: > 125 µM
SMILES: N#Cc1c(Cl)nc(SCc2cn(Cc3ccccc3Cl)nn2)nc1-c1ccc(Cl)cc1

IC50 [1]: > 125 µM
SMILES: C#CCSc1nc(Cl)c(C#N)c(-c2cccc(Cl)c2)n1

IC50 [1]: > 125 µM
SMILES: C#CCSc1nc(Nc2cccc(C(F)(F)F)c2)c(C#N)c(-c2ccc(Cl)cc2)n1

IC50 [1]: > 125 µM
SMILES: C#CCSc1nc(Nc2cccc(Cl)c2)c(C#N)c(-c2ccccc2)n1

IC50 [1]: > 125 µM
SMILES: C#CCSc1nc(Cl)c(C#N)c(-c2ccc([N+](=O)[O-])cc2)n1

IC50 [1]: > 125 µM
SMILES: C#CCSc1nc(NNC(=N)N)c(C#N)c(-c2ccc([N+](=O)[O-])cc2)n1

IC50 [1]: > 125 µM
SMILES: C#CCSc1nc(Nc2ccccc2Cl)c(C#N)c(-c2ccccc2)n1

IC50 [1]: > 125 µM
SMILES: C#CCSc1nc(Nc2ccc(F)cc2)c(C#N)c(-c2ccccc2)n1

IC50 [1]: > 125 µM
SMILES: C#CCSc1nc(Nc2ccc([N+](=O)[O-])cc2)c(C#N)c(-c2ccccc2)n1
